The subject of experiment [1] is Staphylococcus aureus. The experiment is described as follows: Antibiotic effect in vivo in infected mice. Details: species or system Mäuse. To be noted: mice infected with Staphylococcus aureus, single dose of 200 mg/kg. The source says:
(§1) Die Ermittlung der antibiotischen Wirkung erfolgt z.B. einerseits in vitro durch die Bestimmung der mittleren effektiven Konzentration EC₅₀ für die Hemmung der RNA-Polymerase von Escherichia coli, sowie der minimalen Hemmkonzentration MIC ("minimum inhibitory concentration") im konventionellen Plattentest, andererseits in vivo an infizierten Mäusen und Ratten durch die Bestimmung von ED₅₀ (effektive Dosis, die für 50 % der Versuchstiere lebenserhaltend ist). Als Mikroorganismen werden für den vorliegenden Zweck insbesondere Mycobacterium tuberculosis TB H₃₇Rv und Staphylococcus aureus verwendet. Bei Verbindungen mit lipidsenkender Indikation wird eine antibiotische Wirksamkeit als nachteilig erachtet, da sie, insbesondere bei langfristiger Verabreichung, zur Bildung von gegen Antibiotika resistenten Stämmen von Mikroorganismen führen kann.

In experiment [2] the test system is "very low density"-, "low-density"- bzw. "high density"-Lipoproteinen (VLDL, LDL bzw. HDL) im Serum. The experiment is described as follows: Lipid-lowering effect in rats: serum lipoproteins after oral dosing (arrangement A: genetically hypercholesterolaemic male rats; arrangement B: normolipaemic rats). Type of experiment: in vivo, Ratten. To be noted: repeated administration of 30 mg/kg daily. The source says:
Die Diacyl-Verbindungen der vorliegenden Erfindung dagegen weisen, wenn überhaupt, eine nur marginale antibiotische Wirkung auf. Ueberraschenderweise besitzen sie jedoch eine lipidsenkende Wirkung, die in Tierversuchen, vorzugsweise an Säugetieren, z.B. an Ratten, nachgewiesen werden kann. So kann die Senkung von "very low density"-, "low-density"- bzw. "high density"-Lipoproteinen (VLDL, LDL bzw. HDL) im Serum in zwei Testanordnungen, und zwar in genetisch hypercholesterolämischen männlichen Ratten (Anordnung A) und normolipämischen Ratten beiden Geschlechts (Anordnung B) gezeigt werden.
Albino-Ratten mit einem Körpergewicht von 180-240 g, die freien Zugang zu Standard-Rattenfutter und Trinkwasser haben, werden verwendet, und zwar in Anordnung A Sprague Dawley Abkömmlinge des Stammes Tif:RAI und in Anordnung B Tiere des Wistar-Stammes IVa-WI. Die Testverbindung wird in einer Polyethylenglykollösung (mittleres Molekulargewicht von 400) oral an Gruppen von 8 bis 10 Ratten verabreicht, in der Anordnung A einmal täglich um 8 Uhr vormittags während drei aufeinanderfolgenden Tagen und zweimal, um 8 Uhr und 16 Uhr, am vierten Tag, oder im Falle der Anordnung B täglich während 5 aufeinanderfolgenden Tagen. Im Experiment A werden die Tiere 16 Stunden und im Experiment B zwei Stunden nach der letzten Gabe durch Ausblutenlassen vom Hals unter Anästhesie mit Ether getötet. […]

The target in experiment [3] is RNA-Polymerase von Escherichia coli (Escherichia coli, UniProt P0A8V2). Briefly: Inhibition of RNA polymerase (antibiotic effect in vitro). In kind it is biochemical. To be noted: not yet reached at 100 µg/ml; read-out: EC₅₀ für die Inhibition der RNA-Polymerase.
Excerpt: as §1

The subject of experiment [4] is Staphylococcus aureus. Briefly: Minimum inhibitory concentration, conventional plate test. In kind it is cell-based. To be noted: various pathogenic strains of Staphylococcus aureus.
Excerpt: as §1

We go through one compound from EP0308568A1, “Diacyl derivatives of 4-(trialkylbenzyl)-piperazinyl compounds” (CIBA-GEIGY AG, priority 1987, dated 1989).

In brackets after ≈: the same amount, converted by molar mass.

RNA-Polymerase von Escherichia coli, sequence (P0A800 whole entry): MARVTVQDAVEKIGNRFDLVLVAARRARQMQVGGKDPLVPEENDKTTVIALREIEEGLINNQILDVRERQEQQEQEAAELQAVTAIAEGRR
RNA-Polymerase von Escherichia coli, sequence (P0A8T7 whole entry, further chain): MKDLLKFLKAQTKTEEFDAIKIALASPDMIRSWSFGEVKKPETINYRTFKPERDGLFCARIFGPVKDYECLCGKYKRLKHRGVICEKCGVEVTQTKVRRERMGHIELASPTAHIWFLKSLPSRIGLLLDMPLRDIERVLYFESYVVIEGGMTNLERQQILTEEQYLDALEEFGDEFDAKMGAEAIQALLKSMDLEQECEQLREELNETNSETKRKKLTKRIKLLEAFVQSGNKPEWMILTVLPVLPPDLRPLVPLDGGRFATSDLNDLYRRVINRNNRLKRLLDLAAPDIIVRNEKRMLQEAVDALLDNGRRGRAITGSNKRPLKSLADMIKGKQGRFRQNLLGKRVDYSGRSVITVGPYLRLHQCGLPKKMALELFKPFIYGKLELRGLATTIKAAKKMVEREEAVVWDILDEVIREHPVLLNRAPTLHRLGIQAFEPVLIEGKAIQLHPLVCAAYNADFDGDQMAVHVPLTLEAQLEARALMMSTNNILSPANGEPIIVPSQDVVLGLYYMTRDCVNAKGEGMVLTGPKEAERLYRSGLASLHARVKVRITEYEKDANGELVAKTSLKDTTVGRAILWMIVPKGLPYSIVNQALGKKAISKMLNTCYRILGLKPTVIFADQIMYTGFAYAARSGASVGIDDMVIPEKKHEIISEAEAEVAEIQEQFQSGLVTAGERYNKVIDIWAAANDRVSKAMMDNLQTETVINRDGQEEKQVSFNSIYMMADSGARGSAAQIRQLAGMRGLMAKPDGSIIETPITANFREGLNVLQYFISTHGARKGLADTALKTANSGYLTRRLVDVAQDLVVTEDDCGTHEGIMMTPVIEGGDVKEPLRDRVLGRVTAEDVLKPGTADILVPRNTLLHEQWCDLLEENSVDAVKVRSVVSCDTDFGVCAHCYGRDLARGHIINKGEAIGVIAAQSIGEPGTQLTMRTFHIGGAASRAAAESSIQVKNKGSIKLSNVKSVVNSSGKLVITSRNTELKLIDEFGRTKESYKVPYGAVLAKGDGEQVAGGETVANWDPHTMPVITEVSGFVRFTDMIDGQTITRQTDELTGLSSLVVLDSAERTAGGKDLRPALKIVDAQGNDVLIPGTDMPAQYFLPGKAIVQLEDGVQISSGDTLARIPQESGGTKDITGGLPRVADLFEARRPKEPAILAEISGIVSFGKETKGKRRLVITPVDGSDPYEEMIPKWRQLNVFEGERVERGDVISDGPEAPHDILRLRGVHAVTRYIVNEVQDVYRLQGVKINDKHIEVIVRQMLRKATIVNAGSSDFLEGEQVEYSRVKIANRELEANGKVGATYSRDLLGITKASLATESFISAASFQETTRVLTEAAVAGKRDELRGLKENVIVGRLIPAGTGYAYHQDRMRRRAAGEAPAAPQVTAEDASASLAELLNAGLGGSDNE
RNA-Polymerase von Escherichia coli, sequence (P0A8V2 whole entry): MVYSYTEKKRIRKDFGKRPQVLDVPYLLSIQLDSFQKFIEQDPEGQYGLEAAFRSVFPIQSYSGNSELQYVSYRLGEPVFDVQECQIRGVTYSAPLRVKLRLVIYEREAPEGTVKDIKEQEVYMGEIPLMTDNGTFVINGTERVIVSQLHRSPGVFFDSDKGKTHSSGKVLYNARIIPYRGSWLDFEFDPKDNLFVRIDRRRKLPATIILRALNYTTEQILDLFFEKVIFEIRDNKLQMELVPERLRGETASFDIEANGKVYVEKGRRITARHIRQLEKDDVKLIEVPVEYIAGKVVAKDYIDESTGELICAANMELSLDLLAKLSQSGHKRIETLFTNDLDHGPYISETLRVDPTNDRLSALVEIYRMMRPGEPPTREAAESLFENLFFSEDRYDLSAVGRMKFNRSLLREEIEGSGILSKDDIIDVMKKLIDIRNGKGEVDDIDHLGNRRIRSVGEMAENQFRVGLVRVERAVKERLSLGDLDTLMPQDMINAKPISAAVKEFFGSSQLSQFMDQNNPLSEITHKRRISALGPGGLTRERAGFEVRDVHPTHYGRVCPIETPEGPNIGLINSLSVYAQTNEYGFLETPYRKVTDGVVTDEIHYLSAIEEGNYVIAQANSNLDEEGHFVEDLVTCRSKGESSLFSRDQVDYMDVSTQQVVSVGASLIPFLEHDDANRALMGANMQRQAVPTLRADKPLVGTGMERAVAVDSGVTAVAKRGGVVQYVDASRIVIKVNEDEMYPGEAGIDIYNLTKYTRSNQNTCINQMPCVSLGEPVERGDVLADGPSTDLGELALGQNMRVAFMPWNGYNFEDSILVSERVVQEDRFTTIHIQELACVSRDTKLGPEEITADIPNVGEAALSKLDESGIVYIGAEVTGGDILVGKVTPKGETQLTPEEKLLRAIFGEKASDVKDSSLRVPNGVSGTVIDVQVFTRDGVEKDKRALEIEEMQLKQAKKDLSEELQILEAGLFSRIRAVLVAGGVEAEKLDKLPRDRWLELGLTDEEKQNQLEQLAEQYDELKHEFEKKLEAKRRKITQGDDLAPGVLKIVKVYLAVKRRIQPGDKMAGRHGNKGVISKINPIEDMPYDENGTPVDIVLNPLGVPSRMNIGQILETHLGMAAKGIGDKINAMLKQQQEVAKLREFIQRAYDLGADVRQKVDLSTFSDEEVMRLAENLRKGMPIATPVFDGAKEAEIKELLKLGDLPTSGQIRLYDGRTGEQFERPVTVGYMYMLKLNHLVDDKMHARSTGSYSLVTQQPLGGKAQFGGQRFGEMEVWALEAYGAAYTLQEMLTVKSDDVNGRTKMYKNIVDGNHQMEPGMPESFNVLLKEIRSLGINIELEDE
RNA-Polymerase von Escherichia coli, sequence (P0A7Z4 whole entry, further chain): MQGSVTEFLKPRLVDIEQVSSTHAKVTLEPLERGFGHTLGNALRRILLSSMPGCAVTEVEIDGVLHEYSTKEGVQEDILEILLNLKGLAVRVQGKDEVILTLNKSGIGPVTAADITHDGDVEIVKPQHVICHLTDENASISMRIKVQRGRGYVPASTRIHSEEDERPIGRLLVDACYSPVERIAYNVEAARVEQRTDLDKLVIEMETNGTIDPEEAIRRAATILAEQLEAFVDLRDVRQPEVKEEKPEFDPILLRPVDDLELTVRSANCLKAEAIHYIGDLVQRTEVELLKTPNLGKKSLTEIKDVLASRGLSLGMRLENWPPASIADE

The MIC is the lowest concentration found to suppress growth. Higher therefore signals a need for much substance. For the compound `COC1C=COC2(C)Oc3c(C)c(OC(=O)C(C)(C)C)c4c(c3C2=O)C(=O)C(N2CCN(Cc3c(C)cc(C)cc3C)CC2)=C(C4=O)N(C(=O)C(C)(C)C)C(=O)C(C)=CC=CC(C)C(O)C(C)C(O)C(C)C(OC(C)=O)C1C` (stereo not shown) [8-O,N-Dipivaloyl-3-[4-(2,4,6-trimethylbenzyl)-1-piperazinyl]-rifamycin S], in the experiment with Staphylococcus aureus [1], the “antibiotische Wirksamkeit in vivo” value is “antibiotisch unwirksam”. In addition, the “Senkung der "LDL-Fraktion"” value in experiment [2] is 50-70%. Moreover, the EC50 in experiment [3] was greater than 92.6 µM. The minimum inhibitory concentration (MIC) in the experiment with Staphylococcus aureus [4] is roughly 64 µg/mL (≈ 59.2 µM).
